Patent US20230114728A1 (Venatorx Pharmaceuticals, Inc., priority 2019, published 2023)
≈ marks a conversion by molar mass, not a printed value. Where two headings read alike, the source gives them in different places.

Columns and labels:
Type in all cases: cell-based
E. coli 901C = assay: Broth microdilution MIC in CAMHB; conditions: Escherichia coli; E. coli 901C (hyper-permeable); MHB; read-out: Minimum Inhibitory Concentration, E. coli 901C
Summary of the method: (§1)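 Standard CLSI-style microdilution in cation-adjusted Mueller Hinton broth, 2-fold dilution series, incubated 16-20 h at 37° C; endpoint was visual absence of growth.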

E. coli AG100A = assay: Broth microdilution MIC in CAMHB; conditions: Escherichia coli, read-out: Minimum Inhibitory Concentration, E. coli AG100A
Summary of the method: as §1

E. coli AG100 = assay: Broth microdilution MIC in CAMHB; conditions: Escherichia coli; E. coli AG100 (wild-type parent); MHB; read-out: Minimum Inhibitory Concentration, E. coli AG100
Summary of the method: as §1

E. coli D22 = assay: Broth microdilution MIC in CAMHB; conditions: Escherichia coli; E. coli D22 (hyper-permeable); MHB; read-out: Minimum Inhibitory Concentration, E. coli D22
Summary of the method: as §1

[1] = test system: K. pneumoniae UMM producing SHV-5 and KPC-2; assay: Broth microdilution MIC in CAMHB; conditions: Klebsiella pneumoniae, read-out: Minimum Inhibitory Concentration, K. pneumoniae UMM
Summary of the method: as §1

[2] = test system: N. gonorrhoeae ATCC 49226; assay: Liquid broth MIC in Fastidious broth; conditions: Neisseria gonorrhoeae, ATCC49226, Fastidious broth
Summary of the method: (§2)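 Colonies were swabbed from chocolate agar after 24 h growth and standardised by optical density at 600 nm. Compounds were serially diluted twofold in Fastidious broth, and bacteria added to give 5×10^5 CFU/mL. After about 24 h at 36 °C in 5% CO2, the lowest concentration allowing under 10% growth was taken as MIC.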

N. gonorrhoeae FA1090 = assay: Liquid broth MIC in Fastidious broth; conditions: Neisseria gonorrhoeae, Fastidious broth
Summary of the method: as §2

N. gonorrhoeae H041 = assay: Liquid broth MIC in Fastidious broth; conditions: Neisseria gonorrhoeae
Summary of the method: (§3)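 MIC = lowest concentration giving <10% growth relative to untreated wells, scored by eye after ~24 h at 36 °C, 5% CO2. Strains carry mosaic PBP2; inoculum 5×10^5 CFU/mL in Fastidious broth with 2-fold serial compound dilutions.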

N. gonorrhoeae WHO G = assay: Liquid broth MIC in Fastidious broth; conditions: Neisseria gonorrhoeae, Fastidious broth
Summary of the method: as §2

N. gonorrhoeae WHO K = assay: Liquid broth MIC in Fastidious broth; conditions: Neisseria gonorrhoeae
Summary of the method: as §3

N. gonorrhoeae WHO L = assay: Liquid broth MIC in Fastidious broth; conditions: Neisseria gonorrhoeae, Fastidious broth
Summary of the method: as §2

N. gonorrhoeae WHO Q = assay: Liquid broth MIC in Fastidious broth; conditions: Neisseria gonorrhoeae
Summary of the method: as §3

N. gonorrhoeae WHO Z = assay: Liquid broth MIC in Fastidious broth; conditions: Neisseria gonorrhoeae
Summary of the method: as §3

[3] = N. gonorrhoeae strain ATCC 49226, read-out: Minimum Inhibitory Concentration, N. gonorrhoeae ATCC 49226
[4] = N. gonorrhoeae strain FA1090, read-out: Minimum Inhibitory Concentration, N. gonorrhoeae FA1090
[5] = H041, read-out: Minimum Inhibitory Concentration, N. gonorrhoeae H041
[6] = N. gonorrhoeae strain WHO G, read-out: Minimum Inhibitory Concentration, N. gonorrhoeae WHO G
[7] = read-out: Minimum Inhibitory Concentration, N. gonorrhoeae WHO K
[8] = N. gonorrhoeae strain WHO L, read-out: Minimum Inhibitory Concentration, N. gonorrhoeae WHO L
[9] = read-out: Minimum Inhibitory Concentration, N. gonorrhoeae WHO Q
[10] = read-out: Minimum Inhibitory Concentration, N. gonorrhoeae WHO Z
[11] = N. gonorrhoeae ATCC 49226, read-out: Minimum Inhibitory Concentration, ATCC 49226
[12] = N. gonorrhoeae FA1090, read-out: Minimum Inhibitory Concentration, FA1090
[13] = H041, read-out: Minimum Inhibitory Concentration, H041
[14] = N. gonorrhoeae WHO G, read-out: Minimum Inhibitory Concentration, WHO G
[15] = read-out: Minimum Inhibitory Concentration, WHO K
[16] = N. gonorrhoeae WHO L, read-out: Minimum Inhibitory Concentration, WHO L
[17] = read-out: Minimum Inhibitory Concentration, WHO Q
[18] = read-out: Minimum Inhibitory Concentration, WHO Z

| SMILES | MIC (E. coli 901C) | MIC (E. coli AG100A) | MIC (E. coli AG100) | MIC (E. coli D22) | MIC [1] | MIC [2, 3] | MIC (N. gonorrhoeae FA1090; [4]) | MIC (N. gonorrhoeae H041; [5]) | MIC (N. gonorrhoeae WHO G; [6]) | MIC (N. gonorrhoeae WHO K; [7]) | MIC (N. gonorrhoeae WHO L; [8]) | MIC (N. gonorrhoeae WHO Q; [9]) | MIC [2, 11] | MIC (N. gonorrhoeae FA1090; [12]) | MIC (N. gonorrhoeae H041; [13]) | MIC (N. gonorrhoeae WHO G; [14]) | MIC (N. gonorrhoeae WHO K; [15]) | MIC (N. gonorrhoeae WHO L; [16]) | MIC (N. gonorrhoeae WHO Q; [17]) | MIC (N. gonorrhoeae WHO Z; [18]) | further results |
| --- | --- | --- | --- | --- | --- | --- | --- | --- | --- | --- | --- | --- | --- | --- | --- | --- | --- | --- | --- | --- | --- |
| NS(=O)(=O)Nc1ccc(F)c(C(NC(=O)N2CCN(CCF)C(=O)C2=O)C(=O)N[C@H]2Cc3cccc(C(=O)O)c3OB2O)c1 (stereo partly drawn) [Example 198, (3R)-3-(2-(2-fluoro-5-(sulfamoylamino)phenyl)-2-(4-(2-fluoroethyl)-2,3-dioxopiperazine-1-carboxamido)acetamido)-2-hydroxy-3,4-dihydro-2H-benzo[e][1,2]oxaborinine-8-carboxylic acid] | < 0.25 µg/mL | 0.5 to 1 µg/mL (≈ 0.783 to 1.57 µM) | 8 to 16 µg/mL (≈ 12.5 to 25.1 µM) | 0.5 to 1 µg/mL (≈ 0.783 to 1.57 µM) | 32 to 64 µg/mL (≈ 50.1 to 100 µM) | 16 to 32 µg/mL (≈ 25.1 to 50.1 µM) | 0.25 to 0.5 µg/mL (≈ 0.392 to 0.783 µM) | 16 to 32 µg/mL (≈ 25.1 to 50.1 µM) | 4 to 8 µg/mL (≈ 6.27 to 12.5 µM) | 16 to 32 µg/mL (≈ 25.1 to 50.1 µM) | > 64 µg/mL | 16 to 32 µg/mL (≈ 25.1 to 50.1 µM) |  |  |  |  |  |  |  |  | MIC (N. gonorrhoeae WHO Z; [10]): 16 to 32 µg/mL (≈ 25.1 to 50.1 µM) |
| CS(=O)(=O)N1CCN(C(=O)N[C@@H](C(=O)N[C@H]2Cc3ccc(F)c(C(=O)O)c3OB2O)c2cc(F)c(O)c(O)c2Cl)C1=O (single isomer, unassigned) [Example 189] | 0.5 to 1 µg/mL (≈ 0.79 to 1.58 µM) | 2 to 4 µg/mL (≈ 3.16 to 6.32 µM) | 8 to 16 µg/mL (≈ 12.6 to 25.3 µM) | 0.5 to 1 µg/mL (≈ 0.79 to 1.58 µM) | > 128 µg/mL | 16 to 32 µg/mL (≈ 25.3 to 50.6 µM) | 4 to 8 µg/mL (≈ 6.32 to 12.6 µM) | > 64 µg/mL | 16 to 32 µg/mL (≈ 25.3 to 50.6 µM) | 16 to 32 µg/mL (≈ 25.3 to 50.6 µM) | > 64 µg/mL | 16 to 32 µg/mL (≈ 25.3 to 50.6 µM) |  |  |  |  |  |  |  |  | MIC (N. gonorrhoeae WHO Z; [10]): 16 to 32 µg/mL (≈ 25.3 to 50.6 µM) |
| CCN1CCN(C(=O)NC(C(=O)N[C@H]2Cc3cccc(C(=O)O)c3OB2O)c2ccc(C(=O)O)c(Cl)c2Cl)C(=O)C1=O (stereo partly drawn) [Example 201, (3R)-3-(2-(4-carboxy-2,3-dichlorophenyl)-2-(4-ethyl-2,3-dioxopiperazine-1-carboxamido)acetamido)-2-hydroxy-3,4-dihydro-2H-benzo[e][1,2]oxaborinine-8-carboxylic acid] | 0.5 to 1 µg/mL (≈ 0.805 to 1.61 µM) | 32 to 64 µg/mL (≈ 51.5 to 103 µM) | > 128 µg/mL | 2 to 4 µg/mL (≈ 3.22 to 6.44 µM) | > 128 µg/mL |  |  |  |  |  |  |  | 4 to 8 µg/mL (≈ 6.44 to 12.9 µM) | 1 to 2 µg/mL (≈ 1.61 to 3.22 µM) | > 64 µg/mL | 4 to 8 µg/mL (≈ 6.44 to 12.9 µM) | 16 to 32 µg/mL (≈ 25.8 to 51.5 µM) | > 64 µg/mL | 16 to 32 µg/mL (≈ 25.8 to 51.5 µM) | 16 to 32 µg/mL (≈ 25.8 to 51.5 µM) |  |
| CCN1CCN(C(=O)NC(C(=O)N[C@H]2Cc3cccc(C(=O)O)c3OB2O)c2cc(C#N)c(O)cc2F)C(=O)C1=O (stereo partly drawn) [Example 209, (3R)-3-(2-(5-cyano-2-fluoro-4-hydroxyphenyl)-2-(4-ethyl-2,3-dioxopiperazine-1-carboxamido)acetamido)-2-hydroxy-3,4-dihydro-2H-benzo[e][1,2]oxaborinine-8-carboxylic acid] | < 0.25 µg/mL | 2 to 4 µg/mL (≈ 3.53 to 7.05 µM) | 32 to 64 µg/mL (≈ 56.4 to 113 µM) | 2 to 4 µg/mL (≈ 3.53 to 7.05 µM) | 32 to 64 µg/mL (≈ 56.4 to 113 µM) |  |  |  |  |  |  |  | 4 to 8 µg/mL (≈ 7.05 to 14.1 µM) | 0.25 to 0.5 µg/mL (≈ 0.441 to 0.881 µM) | 16 to 32 µg/mL (≈ 28.2 to 56.4 µM) | 4 to 8 µg/mL (≈ 7.05 to 14.1 µM) | 16 to 32 µg/mL (≈ 28.2 to 56.4 µM) | 16 to 32 µg/mL (≈ 28.2 to 56.4 µM) | 16 to 32 µg/mL (≈ 28.2 to 56.4 µM) | 4 to 8 µg/mL (≈ 7.05 to 14.1 µM) |  |
| CCN1CCN(C(=O)N[C@@H](C(=O)N[C@H]2Cc3ccc(F)c(C(=O)O)c3OB2O)c2ccc(O)c(O)c2)C(=O)C1=O [Example 211, (R)-3-((R)-2-(3,4-dihydroxyphenyl)-2-(4-ethyl-2,3-dioxopiperazine-1-carboxamido)acetamido)-7-fluoro-2-hydroxy-3,4-dihydro-2H-benzo[e][1,2]oxaborinine-8-carboxylic acid] |  |  |  |  |  |  |  |  |  |  |  |  | 16 to 32 µg/mL (≈ 28.7 to 57.3 µM) | 4 to 8 µg/mL (≈ 7.16 to 14.3 µM) | 16 to 32 µg/mL (≈ 28.7 to 57.3 µM) | 16 to 32 µg/mL (≈ 28.7 to 57.3 µM) | 16 to 32 µg/mL (≈ 28.7 to 57.3 µM) | > 64 µg/mL | 16 to 32 µg/mL (≈ 28.7 to 57.3 µM) | 16 to 32 µg/mL (≈ 28.7 to 57.3 µM) |  |
